In ChEMBL document CHEMBL3044656, “Influence of soil fumigation on 2,4-D and dicamba carryover in fresh market tomato” (Crop Prot, 2006):

What was measured:
[1] = system: Solanum lycopersicum; assay: Phytotoxicity in Solanum lycopersicum (tomato) plant assessed as plant vigour at 1.14 kg/ha after 134 days (reference value: 82%); assay type: organism-based; settings: in vivo, 3216 h
[2] = Half life of the compound
[3] = system: Solanum lycopersicum; assay: Phytotoxicity in Solanum lycopersicum (tomato) plant in non-fumigated soil assessed as decrease in total fruit yield at 1.14 to 2.28 kg/ha after 174 days relative to untreated control; assay type: organism-based; design: scale not given: the % may be the effect or the level left; settings: in vivo, other, 4176 h
[4] = system: Solanum lycopersicum; assay: Phytotoxicity in Solanum lycopersicum (tomato) plant in fumigated soil assessed as plant vigour at 2.28 kg/ha after 134 days (reference value: 82%); assay type: organism-based; settings: in vivo, other, 3216 h

Structure (SMILES) | Activity [1] [%] | half-life [2] [days] | Activity [3] [%] | Activity [4] [%]
O=C(O)COc1ccc(Cl)cc1Cl [2,4-DICHLOROPHENOXYACETIC ACID] | 83 | 10 | 9 | 80
COc1c(Cl)ccc(Cl)c1C(=O)O [3,6 DICHLOROMETHOXYBENZOIC ACID] | – | 14 | – | –
